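Grown in 96-well plates, cells were treated for 48 hours with each compound at five concentrations. Insufficient inhibition: endpoint recorded as highest concentration tested. Here, GI50 denotes the concentration required for 50% inhibition of growth.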 The source made the active and inactive calls. No stated cut-off is given here; in the data, active = GI50 up to about 1.1 µM and inactive = higher.
What was measured:
Experiment in all cases: growth of human tumour cells (NCI), 48 h
COLO 205 = system: COLO 205
NCI-H522 = system: NCI-H522
SF-539 = system: SF-539
MDA-MB-435 = system: MDA-MB-435
SNB-19 = system: SNB-19
OVCAR-3 = system: OVCAR-3
K562 = system: K562
Hs-578T = system: Hs-578T
HT-29 = system: HT-29
DU-145 = system: DU-145
PC-3 = system: PC-3
M14 = system: M14
NCI-H460 = system: NCI-H460
786-0 = system: 786-0
BT-549 = system: BT-549
Malme-3M = system: Malme-3M
OVCAR-4 = system: OVCAR-4
ACHN = system: ACHN
MOLT-4 = system: MOLT-4
LOX IMVI = system: LOX IMVI
MDA-N = system: MDA-N
NCI-H226 = system: NCI-H226
UACC-257 = system: UACC-257
SF-268 = system: SF-268
HL-60 = system: HL-60
SK-MEL-5 = system: SK-MEL-5
NCI/ADR-RES = system: NCI/ADR-RES
MDA-MB-231 = system: MDA-MB-231
SK-MEL-2 = system: SK-MEL-2
SW-620 = system: SW-620
CCRF-CEM = system: CCRF-CEM
UACC-62 = system: UACC-62
CAKI-1 = system: CAKI-1
KM12 = system: KM12
IGROV-1 = system: IGROV-1
A549 = system: A549
HCT-116 = system: HCT-116
NCI-H23 = system: NCI-H23
UO-31 = system: UO-31
OVCAR-8 = system: OVCAR-8
SF-295 = system: SF-295
HOP-62 = system: HOP-62
U-251 = system: U-251
SR = system: SR
HCT-15 = system: HCT-15
HOP-92 = system: HOP-92
EKVX = system: EKVX
SN12C = system: SN12C
SK-OV-3 = system: SK-OV-3
MCF7 = system: MCF7
OVCAR-5 = system: OVCAR-5
T47D = system: T47D
RPMI-8226 = system: RPMI-8226
RXF 393 = system: RXF 393
TK-10 = system: TK-10
SK-MEL-28 = system: SK-MEL-28
A498 = system: A498
SNB-75 = system: SNB-75
HCC 2998 = system: HCC 2998

## COc1ccc(C2C3CCc4ccccc4C3=NN2S(=O)(=O)c2ccc(Cl)cc2)cc1 (stereo not drawn)
COLO 205
  GI50: 6010 nM (inactive)
NCI-H522
  GI50: 9140 nM (inactive)
SF-539
  GI50: 18300 nM (inactive)
MDA-MB-435
  GI50: 2070 nM (inactive)
SNB-19
  GI50: 39200 nM (inactive)
OVCAR-3
  GI50: 16600 nM (inactive)
K562
  GI50: 4980 nM (inactive)
Hs-578T
  GI50: 33000 nM (inactive)
HT-29
  GI50: 18100 nM (inactive)
DU-145
  GI50: 30000 nM (inactive)
PC-3
  GI50: 17100 nM (inactive)
M14
  GI50: 18300 nM (inactive)
NCI-H460
  GI50: 15800 nM (inactive)
786-0
  GI50: 6930 nM (inactive)
BT-549
  GI50: 44700 nM (inactive)
Malme-3M
  GI50: 59300 nM (inactive)
OVCAR-4
  GI50: 30300 nM (inactive)
ACHN
  GI50: 15400 nM (inactive)
MOLT-4
  GI50: 13100 nM (inactive)
LOX IMVI
  GI50: 22800 nM (inactive)
MDA-N
  GI50: 2810 nM (inactive)
NCI-H226
  GI50: 20700 nM (inactive)
UACC-257
  GI50: 17300 nM (inactive)
SF-268
  GI50: 18400 nM (inactive)
HL-60
  GI50: 17900 nM (inactive)
SK-MEL-5
  GI50: 16000 nM (inactive)
NCI/ADR-RES
  GI50: 5000 nM (inactive)
MDA-MB-231
  GI50: 17100 nM (inactive)
SK-MEL-2
  GI50: 28400 nM (inactive)
SW-620
  GI50: 23200 nM (inactive)
CCRF-CEM
  GI50: 17900 nM (inactive)
UACC-62
  GI50: 13100 nM (inactive)
CAKI-1
  GI50: 16200 nM (inactive)
KM12
  GI50: 7080 nM (inactive)
IGROV-1
  GI50: 2610 nM (inactive)
A549
  GI50: 27900 nM (inactive)
HCT-116
  GI50: 18300 nM (inactive)
NCI-H23
  GI50: 33300 nM (inactive)
UO-31
  GI50: 22600 nM (inactive)
OVCAR-8
  GI50: 41600 nM (inactive)
SF-295
  GI50: 18200 nM (inactive)
HOP-62
  GI50: 31800 nM (inactive)
U-251
  GI50: 17600 nM (inactive)
SR
  GI50: 3010 nM (inactive)
HCT-15
  GI50: 1800 nM
HOP-92
  GI50: 20000 nM (inactive)
EKVX
  GI50: 35700 nM (inactive)
SN12C
  GI50: 37000 nM (inactive)
SK-OV-3
  GI50: 99.5 nM (active)
MCF7
  GI50: 4130 nM (inactive)
OVCAR-5
  GI50: 47600 nM (inactive)
T47D
  GI50: 10700 nM (inactive)
RPMI-8226
  GI50: 14000 nM (inactive)
RXF 393
  GI50: 12100 nM (inactive)
TK-10
  GI50: 32400 nM (inactive)

## C/C(=N\Nc1nc2ccccc2o1)c1ncccn1
COLO 205
  GI50: < 10 nM (active)
NCI-H522
  GI50: < 10 nM (active)
SF-539
  GI50: 43 nM (active)
MDA-MB-435
  GI50: 57.3 nM (active)
SNB-19
  GI50: 163 nM (active)
OVCAR-3
  GI50: 13.6 nM (active)
K562
  GI50: 12 nM (active)
Hs-578T
  GI50: 984 nM (active)
HT-29
  GI50: < 10 nM (active)
DU-145
  GI50: 81.1 nM (active)
PC-3
  GI50: < 27.3 nM (active)
M14
  GI50: < 19.2 nM (active)
NCI-H460
  GI50: < 23.4 nM (active)
786-0
  GI50: < 25.2 nM (active)
BT-549
  GI50: 643 nM (active)
Malme-3M
  GI50: < 10 nM (active)
OVCAR-4
  GI50: < 10 nM (active)
ACHN
  GI50: < 16.5 nM (active)
MOLT-4
  GI50: < 10 nM (active)
LOX IMVI
  GI50: 11.5 nM (active)
SK-MEL-28
  GI50: 40.5 nM (active)
MDA-N
  GI50: 300 nM (active)
NCI-H226
  GI50: 118 nM (active)
UACC-257
  GI50: < 22 nM (active)
SF-268
  GI50: 320 nM (active)
HL-60
  GI50: < 10 nM (active)
SK-MEL-5
  GI50: 57.4 nM (active)
NCI/ADR-RES
  GI50: < 16.3 nM (active)
MDA-MB-231
  GI50: < 20.8 nM (active)
SK-MEL-2
  GI50: 175 nM (active)
SW-620
  GI50: < 10 nM (active)
CCRF-CEM
  GI50: < 10 nM (active)
UACC-62
  GI50: 64.6 nM (active)
CAKI-1
  GI50: < 10 nM (active)
KM12
  GI50: 817 nM (active)
A498
  GI50: 332 nM (active)
IGROV-1
  GI50: 18.4 nM (active)
A549
  GI50: 90.8 nM (active)
HCT-116
  GI50: < 17.5 nM (active)
NCI-H23
  GI50: 123 nM (active)
UO-31
  GI50: < 31.3 nM (active)
OVCAR-8
  GI50: < 10 nM (active)
SF-295
  GI50: 82.4 nM (active)
HOP-62
  GI50: 90.8 nM (active)
U-251
  GI50: 21.3 nM (active)
SR
  GI50: < 20 nM (active)
HCT-15
  GI50: < 21.1 nM
HOP-92
  GI50: 145 nM (active)
EKVX
  GI50: < 17.2 nM (active)
SN12C
  GI50: < 15.8 nM (active)
SK-OV-3
  GI50: 31.2 nM (active)
SNB-75
  GI50: 1850 nM (inactive)
HCC 2998
  GI50: 141 nM (active)
MCF7
  GI50: 12.1 nM (active)
OVCAR-5
  GI50: < 26.7 nM (active)
T47D
  GI50: < 10 nM (active)
RPMI-8226
  GI50: 13.7 nM (active)
TK-10
  GI50: 67.5 nM (active)

From ChEMBL document CHEMBL1201862, “PubChem BioAssay data set” (2004)
